Earlier results as cited in patent US6468963B1, “Methods and formulations for reducing toxicity associated with diabetes treatments” (BioNumerik Pharmaceuticals, Inc., priority 2000, dated 2002).

What was measured:
humans = conditions: doses exceeding 40 g/m^2
dogs = conditions: doses higher than 3750 mg/kg (accepted LD50 for common table salt)
mice = conditions: doses higher than 3750 mg/kg (accepted LD50 for common table salt)
[1] = accepted value; species not stated

Row | Structure (SMILES) | adverse effects (humans) | adverse effects (dogs) | adverse effects (mice) | LD50 [1]
1 | O=S(=O)([O-])CCSSCCS(=O)(=O)[O-].[Na+].[Na+] [Dimesna, disodium 2,2′-dithiobis ethane sulfonate] | no adverse effects | no adverse effects | no adverse effects | 
2 | [Cl-].[Na+] [common table salt] |  |  |  | 3750 mg/kg
